Assay results from patent US6482849B1, “Inhibitors of α4β1 mediated cell adhesion” (Tanabe Seiyaku Co., Ltd., priority 1997, dated 2002).
Where a name gives a salt, the structure may show the parent alone.

Columns and labels:
[1] = molecular target: T1, α4β1 integrin (Jurkat cell adhesion to immobilized CS-1 derived peptide CLHPGEILDVPST) (Homo sapiens, UniProt P05556+P13612); assay: Jurkat-CS-1 Assay; assay type: cell-based; details: Jurkat cells on CS-1 peptide coated plates
T1 construct: 100 μl of Jurkat cells (2.5×10^6 cells/ml) in DMEM plus BSA; endogenous in cells; host or cells: Jurkat T-cell line
T1 sequence (P13612 34-1032): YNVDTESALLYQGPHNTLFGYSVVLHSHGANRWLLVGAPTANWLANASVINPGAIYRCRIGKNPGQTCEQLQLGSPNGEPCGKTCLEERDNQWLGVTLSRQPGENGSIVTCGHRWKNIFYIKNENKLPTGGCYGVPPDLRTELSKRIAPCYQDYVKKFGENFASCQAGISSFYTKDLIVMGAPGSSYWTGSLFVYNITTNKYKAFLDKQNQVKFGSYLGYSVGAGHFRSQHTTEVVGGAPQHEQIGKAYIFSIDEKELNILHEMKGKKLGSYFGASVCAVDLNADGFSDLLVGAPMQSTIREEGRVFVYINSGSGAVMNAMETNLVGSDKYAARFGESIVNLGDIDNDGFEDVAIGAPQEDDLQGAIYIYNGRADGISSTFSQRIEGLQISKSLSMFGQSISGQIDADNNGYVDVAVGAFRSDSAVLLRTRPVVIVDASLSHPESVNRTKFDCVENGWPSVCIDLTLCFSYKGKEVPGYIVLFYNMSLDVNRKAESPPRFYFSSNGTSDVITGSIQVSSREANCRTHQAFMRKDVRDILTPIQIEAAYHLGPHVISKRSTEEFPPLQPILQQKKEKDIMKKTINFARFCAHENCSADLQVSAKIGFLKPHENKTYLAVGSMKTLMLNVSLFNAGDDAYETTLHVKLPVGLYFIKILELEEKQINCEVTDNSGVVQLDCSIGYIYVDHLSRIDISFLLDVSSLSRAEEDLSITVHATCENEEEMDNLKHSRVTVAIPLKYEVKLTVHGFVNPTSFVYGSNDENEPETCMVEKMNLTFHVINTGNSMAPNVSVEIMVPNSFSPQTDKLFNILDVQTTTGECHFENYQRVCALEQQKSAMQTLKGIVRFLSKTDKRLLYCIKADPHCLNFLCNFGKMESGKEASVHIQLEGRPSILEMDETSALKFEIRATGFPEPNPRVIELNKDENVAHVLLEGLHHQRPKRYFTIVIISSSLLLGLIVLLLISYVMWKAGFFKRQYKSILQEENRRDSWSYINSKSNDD
T1 sequence (P05556 21-798): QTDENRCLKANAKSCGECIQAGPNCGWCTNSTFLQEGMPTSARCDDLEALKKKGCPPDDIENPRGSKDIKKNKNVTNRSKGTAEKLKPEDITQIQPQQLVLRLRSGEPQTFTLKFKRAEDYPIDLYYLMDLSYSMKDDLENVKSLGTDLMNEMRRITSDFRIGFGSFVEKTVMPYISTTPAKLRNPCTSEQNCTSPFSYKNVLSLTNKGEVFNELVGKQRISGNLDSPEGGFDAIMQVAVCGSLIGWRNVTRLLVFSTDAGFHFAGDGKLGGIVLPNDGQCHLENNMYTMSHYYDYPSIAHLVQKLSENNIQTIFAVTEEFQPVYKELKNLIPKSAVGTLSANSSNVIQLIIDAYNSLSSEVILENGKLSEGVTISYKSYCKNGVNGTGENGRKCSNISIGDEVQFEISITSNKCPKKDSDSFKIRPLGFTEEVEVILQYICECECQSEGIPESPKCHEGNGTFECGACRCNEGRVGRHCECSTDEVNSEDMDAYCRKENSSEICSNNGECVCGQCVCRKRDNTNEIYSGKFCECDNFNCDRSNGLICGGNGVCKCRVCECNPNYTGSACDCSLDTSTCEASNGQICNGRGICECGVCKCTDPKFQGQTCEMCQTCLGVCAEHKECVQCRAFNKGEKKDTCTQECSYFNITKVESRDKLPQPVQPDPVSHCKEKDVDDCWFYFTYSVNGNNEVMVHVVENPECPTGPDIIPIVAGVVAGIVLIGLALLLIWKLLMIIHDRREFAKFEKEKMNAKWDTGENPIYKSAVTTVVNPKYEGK
Protocol: The CS-1 derived peptide, CLHPGEILDVPST, and the scrambled control peptide, CLHGPIELVSDPT, were synthesized on a Beckman 990 synthesizer using t-Boc methodology. The peptides were immobilized onto microtiter plates using the heterobifunctional crosslinker 3-(2-pyridyldithio)propionic acid N-hydroxysuccinimide ester (SPDP) as reported by Pierschbacher et al., Proc. Natl. Acad. USA, 80:1224-1227 (1983). Microtiter plates were coated with 20 μg/ml HSA for 2 hr. at room temperature, washed once with PBS and derivatized with 10 μg/ml SPDP for 1 hr. After washing, 100 μl of a 100 μg/ml cysteine containing peptide solution which had been recently dissolved was added to the wells and allowed to crosslink to the plates overnight at 4° C. Unbound peptide was removed from plates by washing with PBS. To block non-reacted sites, the plates are coated with 100 μl of a 2.5 mg/ml BSA solution in PBS for 1 hr. at 37° C. 100 μl of Jurkat cells (2.5×10^6 cells/ml) in DMEM plus BSA (2.5 mg/ml) was mixed with an appropriate concentration of the compound to be tested and the mixture was added to peptide coated dishes and incubated for 1 hr. at 37° C. Generally 100, 20, 5 and 1.25 μM concentrations of the compound were tested.
Following this incubation the plates were washed once with PBS and the attached cells were fixed with 3% paraformaldehyde in PBS and stained with 0.5% toluidine blue in 3.7% formaldehyde. The cells were stained overnight at room temperature and the optical density at 590 nm of toluidine blue stained cells was determined using a vertical pathway spectrophotometer to quantitate attachment (VMAX Kinetic Microplate Reader, Molecular Devices, Menlo Park, Calif.). This procedure is a modification of a previously published method (Cardarelli et al, J. Biol. Chem., 269:18668-18673 (1994) and Cardarelli et al, Proc. Natl. Acad. Sci. USA, 83:2647-2651 (1986)).

[2] = molecular target: T2, α4β1 integrin (Jurkat T-cell adhesion to IL-1 stimulated endothelial cell monolayers) (Homo sapiens, UniProt P05556+P13612); assay: Jurkat-Endothelial Cell Adhesion Assay (Jurkat EC); assay type: cell-based; details: Jurkat cells on IL-1 stimulated HUVEC monolayers
T2 construct: a T-cell line, Jurkat, known to express the α4β1 integrin; host or cells: Jurkat T-cell line
T2 sequence (P13612 34-1032): as the sequence (P13612 34-1032) above
T2 sequence (P05556 21-798): as the sequence (P05556 21-798) above
Protocol: The following assay established the activity of the present compounds in inhibiting β1-mediated cell adhesion in a representative in vitro system. This assay measures the adhesive interactions of a T-cell line, Jurkat, known to express the α4β1 integrin, to endothelial monolayers in the presence of test compounds. The test compounds were added in increasing concentrations to T-cells and then the T-cell compound mixture was added to IL-1 stimulated endothelial cell monolayers. The plates were incubated, washed and the percentage of attached cells was quantitated. […] Human umbilical vein endothelial cells were purchased from Clonetics (San Diego, Calif.) at passage number 2. The cells were grown on 0.5% porcine skin gelatin pre-coated flasks (Sigma, St. Louis Mo.) in EGM-UV media (Clonetics, San Diego, Calif.) supplemented with 10% fetal bovine serum. Cells are refed every 2-3 days reaching confluence by day 4 to 6. […] The endothelial cells are not used following passage 6. Am The T-cell line Jurkat was obtained from American Type Tissue Culture Collection (Rockville, Md.) and the cells were cultured in RPMI containing 10% fetal calf serum. The cells were washed twice in Hank's Balanced Salt Solution (HBSS) and resuspended in Dulbecco's […] Eagle's Media (DMEM) containing 2.5 mg/ml Human Serum Albumin (HSA). Jurkat cells (1×10^6 cells/ml) were stained with 10 ng/ml BCECF-AM z z (Molecular Probes, Eugene, Ore.)) in HBSS without phenol red. The cells were loaded with BCECF for 60 minutes in the dark at 37° C., washed 2 times, and resusupended in DMEM-HSA solution.
Confluent endothelial monolayers, grown in 96-well tissue culture plates, were stimulated for 4 hr. at 37° C. with 0.1 ng/ml (˜50 U/ml) recombinant IL-1 (Amgen, Thousand Oaks, Calif.). Following this incubation, the monolayers were washed twice with HBSS and 0.1 ml of DMEM-HSA solution was added. Jurkat cells (5×10^5 cells) were combined with the appropriate concentration of the test compound and 0.1 ml of the Jurkat cell-compound mixture was added to the endothelial cell monolayers. Generally, 100, 20, 5 and 1.25 μM compound concentrations were tested. […] The plates were placed on ice for 5 minutes to allow for Jurkat cell settling and the plates were incubated at 37° C. for 20 minutes. Following this incubation, the monolayers were washed twice with PBS containing 1 mM calcium chloride and 1 mM magnesium chloride and the plates were read using a Millipore Cytofluor 2300 (Marlboro, Mass.). Fluorescence in each well was measured as Arbitrary Fluorescence Units and percent adhesion in the absence of compound was adjusted to 100% and the % adhesion in the presence of compound was calculated. Monolayers were also fixed in 3% paraformaldehyde and evaluated microscopically to verify the adhesion. This procedure is a modification of a previously published method (Cardarelli et al., J. Biol. Chem. 269:18668-18673 (1994)).

Row | melting point | IC50 [1] | IC50 [2] | Structure (SMILES)
1 | 106 to 108 °C | – | – | CC1(C)[C@@H](C(=O)O)CC[C@@]1(C)C(=O)N[C@H](CC(=O)O)Cc1ccc(OCc2c(Cl)cccc2Cl)cc1 (relative stereo) [Example 204, [1R-[1α(S*),3α]]-β-[[(3-Carboxy-1,2,2-trimethylcyclopentyl)carbonyl]amino]-4-[(2,6-dichlorophenyl)methoxy]-benzenebutanoic acid]
2 | 174 to 175 °C (dec.) | – | – | COC(=O)C(Cc1cn(Cc2ccc(Cl)c(Cl)c2)cn1)NC(=O)[C@H]1CC[C@@](C)(C(=O)O)C1(C)C (stereo in doubt) [Example 3, (1S-cis)-N-[(3-Carboxy-2,2,3-trimethylcyclopentyl)carbonyl]-1-[(3,4-dichlorophenyl)methyl]-L-histidine methyl ester]
3 | – | ≤ 80 nM | ≤ 800 nM | CC1(C)[C@@H](C(=O)N[C@@H](Cc2ccc(NC(=O)c3ccccc3[N+](=O)[O-])cc2)C(=O)O)CC[C@@]1(C)C(=O)O [Example 102]
4 | – | ≤ 80 nM | ≤ 800 nM | COC(=O)[C@H](Cc1ccc(NC(=O)c2cc(C(F)(F)F)ccc2C(F)(F)F)cc1)NC(=O)[C@H]1CC[C@@](C)(C(=O)O)C1(C)C [Example 103]
5 | – | 80 to 500 nM | 800 to 5000 nM | CC1(C)[C@@H](C(=O)N[C@@H](Cc2ccc(C(=O)Nc3c(Cl)cccc3Cl)cc2)C(=O)O)CC[C@@]1(C)C(=O)O [Example 153]
6 | – | ≤ 80 nM | ≤ 800 nM | CC1(C)[C@@H](C(=O)N[C@@H](Cc2ccc(NC(=O)c3c(Cl)cccc3Cl)cc2)C(=O)O)CC[C@@]1(C)/C=C/C(=O)O [Example 182, [1S-[1α,3α(E)]]-N-[[3-(2-Carboxyethenyl)-2,2,3-trimethylcyclopentyl]carbonyl]-4-[(2,6-dichlorobenzoyl)amino]-L-phenylalanine disodium salt]
7 | – | 80 to 500 nM | 800 to 5000 nM | CC1(C)[C@@H](C(=O)O)CC[C@@]1(C)C(=O)N[C@@H](Cc1ccc(OCc2c(Cl)cccc2Cl)cc1)C(=O)O [Example 186, (1R-cis)-N-[(3-Carboxy-1,2,2-trimethylcyclopentyl)carbonyl]-O-[(2,6-dichlorophenyl)methyl]-L-tyrosine]
8 | – | 80 to 500 nM | 800 to 5000 nM | CC1(C)[C@@H](C(=O)N[C@@H](Cc2ccc(OCc3c(Cl)cccc3Cl)cc2)C(=O)O)CC[C@@]1(C)C(=O)NCC(N)=O [Example 187, (1S-cis)-N-[[3-[[(2-amino-2-oxoethyl)-amino]carbonyl]-2,2,3-trimethylcyclopentyl]carbonyl]-O-[(2,6-dichlorophenyl)methyl]-L-tyrosine]
9 | 234 to 235 °C | – | – | CC(C)(C)OC(=O)[C@]1(C)CC[C@H](C(=O)N[C@@H](Cc2cn(Cc3ccc(Cl)c(Cl)c3)cn2)C(=O)O)C1(C)C [Example 202, (1S-cis)-1-[(3,4-Dichlorophenyl)methyl]-N-[[3-[(1,1-dimethylethoxy)carbonyl]-2,2,3-trimethylcyclopentyl]carbonyl]-L-histidine]
10 | – | ≤ 80 nM | ≤ 800 nM | CC1(C)[C@@H](C(=O)N[C@@H](Cc2ccc(NC(=O)c3c(Cl)cccc3Cl)cc2)C(=O)O)CC[C@@]1(C)C(=O)NCCC(=O)O [Example 214]
11 | – | ≤ 80 nM | ≤ 800 nM | CC1(C)[C@@H](C(=O)N[C@@H](Cc2ccc(NC(=O)c3c(Cl)cccc3Cl)cc2)C(=O)O)CC[C@@]1(C)C(=O)NCCC#N [Example 216, (1S-cis)-N-[[3-[[(2-Cyanoethyl)amino]carbonyl]-2,2,3-trimethylcyclopentyl]carbonyl]-4-[(2,6-dichlorobenzoyl)amino]-L-phenylalanine]
12 | – | ≤ 80 nM | ≤ 800 nM | CC1(C)[C@@H](C(=O)N[C@@H](Cc2ccc(NC(=O)c3c(Cl)cccc3Cl)cc2)C(=O)O)CC[C@@]1(C)C(=O)NO [Example 219, (1S-cis)-4-[(2,6-Dichlorobenzoyl)amino]-N-[[3-[(hydroxyamino)carbonyl]-2,2,3-trimethyl-cyclopentyl]carbonyl]-L-phenylalanine]
13 | – | 80 to 500 nM | 800 to 5000 nM | CC1(C)[C@@H](C(=O)N[C@@H](Cc2ccc(C(=O)Nc3ccc(-c4ccccc4)cc3)cc2)C(=O)O)CC[C@@]1(C)C(=O)O [Example 220]
14 | – | 500 to 1000 nM | 5000 to 10000 nM | CC1(C)[C@@H](C(=O)N[C@@H](Cc2ccc(C(=O)Nc3ccc(Cl)cc3)cc2)C(=O)O)CC[C@@]1(C)C(=O)O [Example 221]
15 | – | 80 to 500 nM | ≤ 800 nM | CC1(C)[C@@H](C(=O)N[C@@H](Cc2ccc(C(=O)Nc3ccccc3C(F)(F)F)cc2)C(=O)O)CC[C@@]1(C)C(=O)O [Example 222]
16 | – | ≤ 80 nM | ≤ 800 nM | CC1(C)[C@@H](C(=O)N[C@@H](Cc2ccc(C(=O)Nc3c(Cl)cc(Cl)cc3Cl)cc2)C(=O)O)CC[C@@]1(C)C(=O)O [Example 223]
17 | – | ≤ 80 nM | ≤ 800 nM | CC1(C)[C@@H](C(=O)N[C@@H](Cc2ccc(NC(=O)c3c(Cl)cccc3Cl)cc2)C(=O)O)CC[C@@]1(C)C(=O)N1CCOCC1 [Example 225, (1S-cis)-4-[(2,6-Dichlorobenzoyl)amino]-N-[[2,2,3-trimethyl-3-[(4-morpholinyl)carbonyl]-cyclopentyl]carbonyl]-L-phenylalanine]
18 | – | 500 to 1000 nM | ≤ 800 nM | COC(=O)[C@H](Cc1ccc(NC(=O)c2cc(C(F)(F)F)ccc2Cl)cc1)NC(=O)[C@H]1CC[C@@](C)(C(=O)O)C1(C)C [Example 231, (1S-cis)-N-[(3-Carboxy-2,2,3-trimethyl-cyclopentyl)carbonyl]-4-[(2-chloro-5-trifluoromethylbenzoyl)amino]-L-phenylalanine methyl ester]
19 | – | ≤ 80 nM | ≤ 800 nM | CC1(C)[C@@H](C(=O)N[C@@H](Cc2ccc(NC(=O)c3cc(C(F)(F)F)ccc3Cl)cc2)C(=O)O)CC[C@@]1(C)C(=O)O [Example 232, (1S-cis)-N-[(3-Carboxy-2,2,3-trimethyl-cyclopentyl)carbonyl]-4-[(2-chloro-5-trifluoromethylbenzoyl)amino]-L-phenylalanine]
20 | – | 80 to 500 nM | 800 to 5000 nM | CC(C)(C)c1ccc(C(=O)Nc2ccc(C[C@H](NC(=O)[C@H]3CC[C@@](C)(C(=O)O)C3(C)C)C(=O)O)cc2)c(Cl)c1 [Example 253, (1S-cis)-N-[(3-Carboxy-2,2,3-trimethylcyclopentyl)carbonyl]-4-[[2-chloro-4-[(1,1-dimethyl)ethyl]benzoyl]amino]-L-phenylalanine]
